Laboratory results taken from patent publication US8846758B2, “Methods of decreasing glycosylated hemoglobin in patients with dyslipidemia” (TWi Biotechnology, Inc., priority 2011, dated 2014).

Key:
[1] = Same study: body weight and lipid profiles; type: in vivo, human; settings: diacerin 50 mg twice daily, 24 weeks
Protocol: This was a prospective, randomized, double-blind, and parallel comparison study comparing diacerin 50 mg versus placebo in patients with type 2 diabetes mellitus inadequately controlled by previous antidiabetic therapy. The starting dose of diacerin was 50 mg once daily every morning for 4 weeks and could be adjusted up to 50 mg twice daily (morning and evening) if patients have become accustomed to the medication. Patients were screened for eligibility four weeks (week—4) prior to entry at baseline (week 0). During this 4-week screening period, the participants continued their previous antidiabetic therapy, dietary habits, and other lifestyle habits. In order to be eligible for randomization following the 4-week screening period, patients must not have experienced hypoglycemia and must have had two fasting plasma glucose (FPG) measurements of between 135 to 250 mg/dL. At the end of the screening period, patients who met eligibility requirements were randomly assigned to receive diacerin 50 mg or placebo twice a day for 24 weeks observation. During treatment/observation period, the previous antidiabetic therapy including the class and/or dosage was not changed. […]
For the efficacy parameters, descriptive statistics were presented by visit. […] The area under the concentration-time curve (AUC) was used for evaluating the parameters measured by oral glucose tolerance test. […]

[2] = system: patients with type 2 diabetes mellitus inadequately controlled by previous antidiabetic therapy; assay: Randomized, double-blind, placebo-controlled study of diacerin in uncontrolled type 2 diabetes mellitus: HbA1c; type: in vivo, human
From the text: To evaluate the efficacy and safety of diacerin for the treatment of type 2 diabetes mellitus (DM).
To compare the efficacy of add-on diacerin with no add-on treatment (placebo) on HbA1c after 24-week double-blind treatment in Type 2 DM patients inadequately controlled by previous antidiabetic therapy.
Male or female patients (BMI≦35 kg/m^2) with type 2 diabetes mellitus on a stable oral hypoglycemic monotherapy for at least 3 months prior to screening visit. The HbA1c measurements taken at screening visit must be between 7% and 12%. Patients enrolled in the study must be receiving one or more oral antihyperglycemic agents including sulfonylurea, biguanides, alpha-glucosidase inhibitors, thiazolidinediones, and nonsulfonylurea insulin secretagogues.
This was a prospective, randomized, double-blind, and parallel comparison study comparing diacerin 50 mg versus placebo in patients with type 2 diabetes mellitus inadequately controlled by previous antidiabetic therapy. The starting dose of diacerin was 50 mg once daily every morning for 4 weeks and could be adjusted up to 50 mg twice daily (morning and evening) if patients have become accustomed to the medication. Patients were screened for eligibility four weeks (week—4) prior to entry at baseline (week 0). During this 4-week screening period, the participants continued their previous antidiabetic therapy, dietary habits, and other lifestyle habits. In order to be eligible for randomization following the 4-week screening period, patients must not have experienced hypoglycemia and must have had two fasting plasma glucose (FPG) measurements of between 135 to 250 mg/dL. At the end of the screening period, patients who met eligibility requirements were randomly assigned to receive diacerin 50 mg or placebo twice a day for 24 weeks observation. During treatment/observation period, the previous antidiabetic therapy including the class and/or dosage was not changed. Patients were asked to attend the center on eight occasions (screening, baseline, week 4, 8, 12, 16, 20 and 24) during the trial. The total study duration including the screening period for each patient was 28 weeks. There was a two weeks long follow-up period after completion of the treatment/observation. During this follow-up period, patients were followed for adverse events.
The difference (diacerin vs. placebo) of HbA1c reduction between the two treatment groups was analyzed by analysis of covariance (ANCOVA) with baseline value as a covariate. The corresponding 95% confidence interval was calculated. Within-group changes were also analyzed, with paired t test used to evaluate differences from baseline in each treatment group.
For the efficacy parameters, descriptive statistics were presented by visit. Statistical analysis was performed to assess the mean change from baseline. The area under the concentration-time curve (AUC) was used for evaluating the parameters measured by oral glucose tolerance test.
A dyslipidemia sub-group was assembled, wherein subjects had the following baseline levels: a) plasma cholesterol levels greater than 200 mg/dl, or b) plasma triglyceride levels greater than 150 mg/dl, or c) plasma LDL levels greater than 100 mg/dl. The effects of administering […] to the patients in this dyslipidemia sub-group were analyzed by paired t-test compared with the placebo group.
Subjects (n=76) were randomized in a 1:1 ratio to receive twice-daily diacerin 50 mg (n=38), or placebo (n=38) for 24 weeks. 26 subjects in the diacerin group finished the whole treatment period. Within these 26 subjects, there were 16 subjects with plasma cholesterol levels greater than 200 mg/dl, or plasma triglyceride levels greater than 150 mg/dl, or plasma LDL levels greater than 100 mg/dl at baseline respectively. Plasma cholesterol, triglyceride and LDL levels in the other 10 subjects were normal in the baseline. Thus, there were 16 subjects in the dyslipidemia subgroup.

CC(=O)Oc1cccc2c1C(=O)c1c(OC(C)=O)cc(C(=O)O)cc1C2=O [diacerin, 4,5-bis(acetyloxy)-9,10-dioxo-2-anthracene carboxylic acid]
changes in body weight compared with the placebo group [1]: no significant changes | changes in lipid profiles compared with the placebo group [1]: no significant changes | HbA1c mean change from baseline, week 24 ([2]; All subjects (N=26) completing 24 weeks, diacerin 50 mg twice daily add-on): −0.63% | HbA1c mean change from baseline, week 24 ([2]; Dyslipidemia subgroup (N=16), diacerin 50 mg twice daily, 24 weeks): −0.82% | HbA1c mean change from baseline, week 24 ([2]; Hyper LDL-cholesterolemia subgroup (N=11), diacerin 50 mg twice daily, 24 weeks): −0.84% | HbA1c mean change from baseline, week 24 ([2]; Hypercholesterolemia subgroup (N=7), diacerin 50 mg twice daily, 24 weeks): −0.76% | HbA1c mean change from baseline, week 24 ([2]; Hypertriglyceridemia or hypercholesterolemia subgroup (N=14), diacerin 50 mg twice daily, 24 weeks): −0.89% | HbA1c mean change from baseline, week 24 ([2]; Hypertriglyceridemia subgroup (N=11), diacerin 50 mg twice daily, 24 weeks): −0.83% | HbA1c mean change from baseline, week 24 ([2]; Normal lipid profiles subgroup (N=10), diacerin 50 mg twice daily, 24 weeks): −0.30% | decrease of HbA1c levels compared with the placebo group ([2]; after 24-week treatment, all subjects, p<0.05): about 0.63% | patients whose HbA1c levels decreased by more than or equal to 0.5% ([2]; diacerin group, 13 of 26 patients, 24 weeks): 50% | patients whose HbA1c levels decreased by more than or equal to 0.5% ([2]; dyslipidemia subgroup, 10 of 16 patients, 24 weeks): 62.5% | decrease of HbA1c levels compared with the baseline ([2]; dyslipidemia subgroup, after 24-week treatment): about 0.82% | patients whose HbA1c levels decreased by more than or equal to 0.5% ([2]; hypercholesterolemia subgroup, 4 of 7 patients, 24 weeks): 57.1% | patients whose HbA1c levels decreased by more than or equal to 0.5% ([2]; hypertriglyceridemia or hypercholesterolemia subgroup, 10 of 14 patients, 24 weeks): 71.4% | patients whose HbA1c levels decreased by more than or equal to 0.5% ([2]; hypertriglyceridemia subgroup, 7 of 11 patients, 24 weeks): 63.6% | patients whose HbA1c levels decreased by more than or equal to 0.5% ([2]; normal plasma lipid profiles, 4 of 10 patients, 24 weeks): 40% | decrease of HbA1c levels compared with the baseline ([2]; type 2 diabetic patients with normal lipid profile, after 24-week treatment): about 0.30%
